One series has as its target PLK2 (Homo sapiens, UniProt Q9NYY3). Kind of series: biochemical. As to conditions: read-out: % enzyme activity, 1 μM; Run 1, Run 2.
Series [1] deals with T1, CDK1/cyclin B (Homo sapiens, UniProt P06493). Kind of series: biochemical. The note with it: read-out: % enzyme activity, 1 μM; Run 1, Run 2.
In another series the target is CDK3/cyclin E (Homo sapiens, UniProt Q00526). The note with it: 1 μM; Run 1, Run 2.
Another series concerns the target PKN1/PRK1 (Homo sapiens, UniProt Q16512). Kind of series: biochemical. The note with it: read-out: % enzyme activity, 1 μM; Run 1, Run 2.
In a further series the target is TYK1/LTK (Homo sapiens, UniProt P29376). Kind of series: biochemical. The note with it: read-out: % enzyme activity, 1 μM; Run 1, Run 2.
Another series addresses RAF1 (Homo sapiens, UniProt P04049). The note with it: 1 μM; Run 1, Run 2.
Series [2] concerns the target T1, CDK1/cyclin B. The note with it: 1 μM; Run 1, Run 2.
Series [3] concerns the target T2, TXK (Homo sapiens, UniProt P42681).
T2 sequence (P42681 1-527): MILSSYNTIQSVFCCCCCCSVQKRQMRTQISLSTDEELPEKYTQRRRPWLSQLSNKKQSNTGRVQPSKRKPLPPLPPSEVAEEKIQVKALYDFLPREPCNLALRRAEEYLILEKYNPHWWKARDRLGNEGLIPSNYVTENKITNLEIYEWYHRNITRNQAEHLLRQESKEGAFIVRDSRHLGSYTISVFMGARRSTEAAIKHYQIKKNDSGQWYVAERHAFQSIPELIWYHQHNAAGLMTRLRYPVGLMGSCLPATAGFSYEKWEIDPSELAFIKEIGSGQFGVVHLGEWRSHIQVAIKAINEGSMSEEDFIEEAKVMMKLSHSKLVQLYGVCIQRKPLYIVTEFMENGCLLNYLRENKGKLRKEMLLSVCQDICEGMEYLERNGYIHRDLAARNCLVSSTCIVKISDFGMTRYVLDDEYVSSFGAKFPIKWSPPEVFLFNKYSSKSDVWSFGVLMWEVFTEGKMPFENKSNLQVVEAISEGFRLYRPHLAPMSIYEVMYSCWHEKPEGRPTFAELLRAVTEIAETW
The note with it: 1 μM; Run 1, Run 2.

For series [4], the target named is T2, TXK. Kind of series: biochemical. The note with it: read-out: % enzyme activity, 1 μM; Run 1, Run 2.
For another series, the target named is IRAK1 (Homo sapiens, UniProt P51617). Kind of series: biochemical. The note with it: read-out: % enzyme activity, 1 μM; Run 1, Run 2.
The target of another series is MLK2/MAP3K10 (Homo sapiens, UniProt Q02779). Kind of series: biochemical. As to conditions: read-out: % enzyme activity, 1 μM; Run 1, Run 2.
Chain of MLK2/MAP3K10 (Q02779 whole entry): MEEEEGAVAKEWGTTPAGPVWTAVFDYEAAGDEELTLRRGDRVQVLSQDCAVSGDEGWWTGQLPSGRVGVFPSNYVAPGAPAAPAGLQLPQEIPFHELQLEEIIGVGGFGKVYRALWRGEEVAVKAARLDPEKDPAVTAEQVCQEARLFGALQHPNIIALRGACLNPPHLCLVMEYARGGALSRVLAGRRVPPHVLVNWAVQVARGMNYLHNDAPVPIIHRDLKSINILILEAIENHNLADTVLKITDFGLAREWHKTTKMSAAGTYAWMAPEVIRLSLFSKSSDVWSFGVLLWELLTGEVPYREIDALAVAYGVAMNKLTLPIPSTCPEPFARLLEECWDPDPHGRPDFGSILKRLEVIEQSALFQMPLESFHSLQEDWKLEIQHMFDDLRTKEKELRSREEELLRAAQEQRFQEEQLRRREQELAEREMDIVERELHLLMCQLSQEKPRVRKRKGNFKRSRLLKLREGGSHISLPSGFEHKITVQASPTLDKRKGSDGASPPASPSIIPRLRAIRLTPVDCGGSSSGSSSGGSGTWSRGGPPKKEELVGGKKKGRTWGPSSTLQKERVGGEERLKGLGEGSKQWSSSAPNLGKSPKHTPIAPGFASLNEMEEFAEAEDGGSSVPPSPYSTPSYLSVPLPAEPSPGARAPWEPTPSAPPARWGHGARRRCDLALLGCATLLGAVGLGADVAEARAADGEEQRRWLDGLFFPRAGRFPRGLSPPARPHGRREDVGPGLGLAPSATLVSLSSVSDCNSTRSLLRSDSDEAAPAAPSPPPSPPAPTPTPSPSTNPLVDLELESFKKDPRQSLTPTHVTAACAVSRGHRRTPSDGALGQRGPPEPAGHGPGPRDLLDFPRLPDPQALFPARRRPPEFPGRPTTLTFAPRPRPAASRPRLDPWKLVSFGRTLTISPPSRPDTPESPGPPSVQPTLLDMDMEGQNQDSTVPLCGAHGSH
The target in another series is PAK6 (Homo sapiens, UniProt Q9NQU5). Kind of series: biochemical. As to conditions: read-out: % enzyme activity, 1 μM; Run 1, Run 2.
The target of another series is CYP2C19 (Homo sapiens, UniProt P33261). The note with it: read-out: CYP2C19 IC50; human liver microsomes. A general note: Microsomes from liver hold many membrane-bound enzymes, among them those of drug oxidation.
For the next series, the target named is T3, GRK2 (Homo sapiens, UniProt P25098).
T3 sequence (P25098 1-689): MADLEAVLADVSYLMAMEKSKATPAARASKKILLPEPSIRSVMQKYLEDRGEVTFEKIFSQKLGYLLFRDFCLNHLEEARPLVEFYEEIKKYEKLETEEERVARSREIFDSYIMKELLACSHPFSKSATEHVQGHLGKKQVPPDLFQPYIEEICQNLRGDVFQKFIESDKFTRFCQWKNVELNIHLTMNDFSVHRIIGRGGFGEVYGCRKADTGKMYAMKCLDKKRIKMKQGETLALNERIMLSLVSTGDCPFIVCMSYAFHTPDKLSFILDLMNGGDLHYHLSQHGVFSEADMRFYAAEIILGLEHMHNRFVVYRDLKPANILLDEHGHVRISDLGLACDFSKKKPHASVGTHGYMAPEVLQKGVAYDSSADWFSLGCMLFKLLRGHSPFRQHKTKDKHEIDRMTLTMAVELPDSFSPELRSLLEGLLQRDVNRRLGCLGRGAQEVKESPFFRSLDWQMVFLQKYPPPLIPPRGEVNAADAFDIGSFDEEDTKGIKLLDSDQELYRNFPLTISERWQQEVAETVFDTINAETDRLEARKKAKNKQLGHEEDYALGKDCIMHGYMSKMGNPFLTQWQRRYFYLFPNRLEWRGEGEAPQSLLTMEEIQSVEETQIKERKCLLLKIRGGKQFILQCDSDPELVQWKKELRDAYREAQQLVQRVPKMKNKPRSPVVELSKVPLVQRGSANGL
Description: biochemical. As to conditions: read-out: % enzyme activity, 1 μM; Run 1, Run 2.

The target in the next series is GSK3b (Homo sapiens, UniProt P49841). Kind of series: biochemical. As to conditions: read-out: % enzyme activity, 1 μM; Run 1, Run 2.
Chain of GSK3b (P49841 whole entry): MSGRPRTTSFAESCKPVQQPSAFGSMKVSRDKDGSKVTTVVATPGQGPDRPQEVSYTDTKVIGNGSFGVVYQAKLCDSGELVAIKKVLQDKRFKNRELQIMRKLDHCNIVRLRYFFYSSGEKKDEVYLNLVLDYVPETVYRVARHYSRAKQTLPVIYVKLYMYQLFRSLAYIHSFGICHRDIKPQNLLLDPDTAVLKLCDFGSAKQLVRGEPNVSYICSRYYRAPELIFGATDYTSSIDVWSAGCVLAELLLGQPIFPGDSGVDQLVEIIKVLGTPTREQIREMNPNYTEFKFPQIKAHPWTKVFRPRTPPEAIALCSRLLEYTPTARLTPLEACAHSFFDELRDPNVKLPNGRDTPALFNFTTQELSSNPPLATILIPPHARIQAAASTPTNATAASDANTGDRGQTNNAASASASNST
The target in the next series is T4, TSSK3/STK22C (Homo sapiens, UniProt Q96PN8).
T4 sequence (Q96PN8 1-268): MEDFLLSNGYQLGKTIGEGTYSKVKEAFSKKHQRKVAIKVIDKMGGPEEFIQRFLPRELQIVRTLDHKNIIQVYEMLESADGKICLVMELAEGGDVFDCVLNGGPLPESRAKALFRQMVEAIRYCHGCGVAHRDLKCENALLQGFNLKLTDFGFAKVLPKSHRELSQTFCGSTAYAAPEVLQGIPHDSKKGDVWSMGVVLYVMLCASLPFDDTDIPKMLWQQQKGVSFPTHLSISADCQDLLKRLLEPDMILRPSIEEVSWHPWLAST
The note with it: 1 μM; Run 1, Run 2.

In a further series the target is MAST3 (Homo sapiens, UniProt O60307). The note with it: 1 μM; Run 1, Run 2.
The target of a further series is PAK3 (Homo sapiens, UniProt O75914). As to conditions: 1 μM; Run 1, Run 2.
Chain of PAK3 (O75914 whole entry): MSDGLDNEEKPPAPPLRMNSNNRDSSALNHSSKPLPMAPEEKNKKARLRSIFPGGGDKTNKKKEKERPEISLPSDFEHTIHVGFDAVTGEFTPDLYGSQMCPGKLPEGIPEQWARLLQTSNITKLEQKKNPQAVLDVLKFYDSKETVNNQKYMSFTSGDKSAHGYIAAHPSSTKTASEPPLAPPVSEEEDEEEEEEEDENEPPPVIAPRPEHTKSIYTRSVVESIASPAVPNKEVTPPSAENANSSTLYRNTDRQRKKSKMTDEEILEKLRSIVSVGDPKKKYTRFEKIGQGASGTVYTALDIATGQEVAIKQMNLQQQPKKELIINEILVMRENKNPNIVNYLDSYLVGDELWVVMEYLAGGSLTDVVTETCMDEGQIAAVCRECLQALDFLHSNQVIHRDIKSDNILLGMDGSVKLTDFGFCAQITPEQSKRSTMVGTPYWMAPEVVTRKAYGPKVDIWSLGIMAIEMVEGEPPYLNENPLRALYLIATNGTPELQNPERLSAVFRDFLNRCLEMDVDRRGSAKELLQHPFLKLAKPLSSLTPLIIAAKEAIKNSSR
For another series, the target named is MEK1 (Homo sapiens, UniProt Q02750). As to conditions: 1 μM; Run 1, Run 2.
Another series addresses PAK2 (Homo sapiens, UniProt Q13177). The note with it: 1 μM; Run 1, Run 2.
In another series the target is HIPK2 (Homo sapiens, UniProt Q9H2X6). As to conditions: 1 μM; Run 1, Run 2.
The next series has as its target PKCb1 (Homo sapiens, UniProt P05771). As to conditions: 1 μM; Run 1, Run 2.
For a further series, the target named is ACK1 (Homo sapiens, UniProt Q07912). As to conditions: 1 μM; Run 1, Run 2.

The structures appear in SMILES notation.

T1 sequence (P06493 whole entry): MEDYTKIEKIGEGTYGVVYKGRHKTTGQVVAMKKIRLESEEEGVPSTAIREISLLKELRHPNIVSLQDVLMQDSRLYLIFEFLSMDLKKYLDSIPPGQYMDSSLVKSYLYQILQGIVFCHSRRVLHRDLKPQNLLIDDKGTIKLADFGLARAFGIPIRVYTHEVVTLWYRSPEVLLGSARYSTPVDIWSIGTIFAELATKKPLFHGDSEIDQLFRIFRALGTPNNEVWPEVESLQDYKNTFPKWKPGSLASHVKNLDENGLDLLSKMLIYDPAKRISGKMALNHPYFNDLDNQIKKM
T1 sequence (P14635 whole entry partner): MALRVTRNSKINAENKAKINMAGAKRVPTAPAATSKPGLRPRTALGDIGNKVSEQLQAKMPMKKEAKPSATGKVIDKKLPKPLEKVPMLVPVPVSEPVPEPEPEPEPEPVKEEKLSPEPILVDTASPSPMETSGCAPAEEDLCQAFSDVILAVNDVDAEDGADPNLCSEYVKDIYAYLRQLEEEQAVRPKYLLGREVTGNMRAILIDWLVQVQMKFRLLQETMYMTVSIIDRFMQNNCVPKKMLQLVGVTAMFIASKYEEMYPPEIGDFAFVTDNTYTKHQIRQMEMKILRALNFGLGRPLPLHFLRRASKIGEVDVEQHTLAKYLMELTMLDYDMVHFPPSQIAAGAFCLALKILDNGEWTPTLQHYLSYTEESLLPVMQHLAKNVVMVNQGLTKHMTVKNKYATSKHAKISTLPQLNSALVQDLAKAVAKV
Chain of RAF1 (P04049 whole entry): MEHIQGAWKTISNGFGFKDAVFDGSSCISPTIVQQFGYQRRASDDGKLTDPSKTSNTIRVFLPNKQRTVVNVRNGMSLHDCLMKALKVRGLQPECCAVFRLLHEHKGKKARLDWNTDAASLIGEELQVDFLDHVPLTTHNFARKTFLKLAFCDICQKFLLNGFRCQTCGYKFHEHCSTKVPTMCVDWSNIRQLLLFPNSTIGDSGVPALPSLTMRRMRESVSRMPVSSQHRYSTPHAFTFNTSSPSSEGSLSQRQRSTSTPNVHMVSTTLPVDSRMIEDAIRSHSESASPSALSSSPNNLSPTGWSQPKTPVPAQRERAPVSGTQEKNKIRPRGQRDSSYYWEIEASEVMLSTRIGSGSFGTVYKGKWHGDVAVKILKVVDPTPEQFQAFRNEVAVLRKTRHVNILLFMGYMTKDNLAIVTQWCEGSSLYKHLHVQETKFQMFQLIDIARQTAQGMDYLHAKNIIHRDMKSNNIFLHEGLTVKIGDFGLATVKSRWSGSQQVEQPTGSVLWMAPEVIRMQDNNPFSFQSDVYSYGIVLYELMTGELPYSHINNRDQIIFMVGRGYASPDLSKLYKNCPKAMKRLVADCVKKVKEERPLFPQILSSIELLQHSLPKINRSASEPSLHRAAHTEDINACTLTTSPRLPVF
Chain of PKCb1 (P05771 whole entry): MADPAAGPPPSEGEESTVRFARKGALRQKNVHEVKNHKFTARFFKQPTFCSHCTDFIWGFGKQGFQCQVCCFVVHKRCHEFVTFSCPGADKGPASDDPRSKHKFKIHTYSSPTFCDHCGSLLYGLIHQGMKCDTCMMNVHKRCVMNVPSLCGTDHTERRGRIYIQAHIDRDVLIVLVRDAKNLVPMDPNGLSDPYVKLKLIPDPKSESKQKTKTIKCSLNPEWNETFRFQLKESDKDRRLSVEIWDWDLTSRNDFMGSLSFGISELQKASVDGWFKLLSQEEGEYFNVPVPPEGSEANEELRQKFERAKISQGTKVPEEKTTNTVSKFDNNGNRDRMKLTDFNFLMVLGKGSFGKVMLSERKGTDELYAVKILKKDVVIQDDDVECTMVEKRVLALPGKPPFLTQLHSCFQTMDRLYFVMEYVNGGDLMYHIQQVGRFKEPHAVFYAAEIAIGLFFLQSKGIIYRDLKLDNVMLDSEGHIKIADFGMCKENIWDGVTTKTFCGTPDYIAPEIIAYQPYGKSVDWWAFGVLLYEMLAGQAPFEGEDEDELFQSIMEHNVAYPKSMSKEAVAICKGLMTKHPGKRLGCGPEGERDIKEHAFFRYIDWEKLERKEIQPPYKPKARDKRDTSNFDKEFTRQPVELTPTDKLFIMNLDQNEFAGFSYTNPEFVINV
Chain of PKN1/PRK1 (Q16512 whole entry): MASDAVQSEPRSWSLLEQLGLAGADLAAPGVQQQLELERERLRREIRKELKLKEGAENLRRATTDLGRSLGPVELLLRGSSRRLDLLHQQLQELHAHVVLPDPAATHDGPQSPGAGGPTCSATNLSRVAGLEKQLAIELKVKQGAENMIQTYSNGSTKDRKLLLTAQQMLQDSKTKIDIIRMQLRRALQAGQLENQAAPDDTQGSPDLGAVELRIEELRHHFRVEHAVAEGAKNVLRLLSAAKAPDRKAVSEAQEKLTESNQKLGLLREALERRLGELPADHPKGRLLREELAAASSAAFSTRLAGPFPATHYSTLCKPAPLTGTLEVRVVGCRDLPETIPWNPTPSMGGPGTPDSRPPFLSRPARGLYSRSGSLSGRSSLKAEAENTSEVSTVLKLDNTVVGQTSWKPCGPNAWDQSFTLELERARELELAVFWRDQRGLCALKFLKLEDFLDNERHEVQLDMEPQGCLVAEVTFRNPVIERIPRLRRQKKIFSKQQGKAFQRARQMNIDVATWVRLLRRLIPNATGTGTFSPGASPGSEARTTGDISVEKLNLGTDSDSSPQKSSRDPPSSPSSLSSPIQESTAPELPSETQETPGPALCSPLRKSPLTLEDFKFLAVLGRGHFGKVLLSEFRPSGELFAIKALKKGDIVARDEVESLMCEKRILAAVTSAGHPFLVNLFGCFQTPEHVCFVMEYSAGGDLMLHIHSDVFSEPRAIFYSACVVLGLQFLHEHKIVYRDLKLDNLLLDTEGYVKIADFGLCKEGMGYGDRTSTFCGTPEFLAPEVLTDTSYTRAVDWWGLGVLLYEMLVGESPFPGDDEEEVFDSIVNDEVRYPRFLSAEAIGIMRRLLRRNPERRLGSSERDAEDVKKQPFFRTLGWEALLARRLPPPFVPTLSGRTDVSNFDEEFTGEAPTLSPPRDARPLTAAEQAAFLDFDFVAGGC

As to `COc1cc(-c2cncc(-c3ccc(N4C[C@@H](C)N(C)[C@@H](C)C4)cc3)c2C)cc(F)c1C(N)=O` [Compound 26c, 2-Fluoro-6-methoxy-4-(4-methyl-5-(4-((3R,5S)-3,4,5-trimethylpiperazin-1-yl)phenyl)pyridin-3-yl)benzamide], the remaining activity at 1 µM on PLK2 amounted to 103%; on CDK1/cyclin B [1], 94%; on PKN1/PRK1, 98.7%; on TYK1/LTK, 99.3%; on TXK [4], 98.2%; at IRAK1, 98.9%. Further, the remaining activity at 1 µM stood at 98.5% on MLK2/MAP3K10, 96.3% on PAK6, 101% on GRK2 and 88.8% on GSK3b. The “% enzyme activity” value came out at 78.38% on CDK3/cyclin E; 83.85% at RAF1; 91.98% at CDK1/cyclin B [2]; 95.85% on TXK [3]; 95.64% at TSSK3/STK22C; 95.17% on MAST3. Also, the “% enzyme activity” value at PAK3 came out at 124.21%; at MEK1, 93.40%; on PAK2, 103.95%; at HIPK2, 101.85%; at PKCb1, 83.58%; on ACK1, 76.07%. Besides, the CYP inhibition at CYP2C8 is above 50 µM. For the same molecule, the IC50 at CYP2C19 is above 50 µM.

As to `COc1cc(-c2cncc(-c3ccc(N4CCN(C)CC4)cc3)c2C)cc(F)c1C(N)=O` [Compound 26a, 2-Fluoro-6-methoxy-4-(4-methyl-5-(4-(4-methylpiperazin-1-yl)phenyl)pyridin-3-yl)benzamide], the remaining activity at 1 µM is 98.8% on PLK2; 95.7% on CDK1/cyclin B [1]; 98.5% on PKN1/PRK1; 99% at TYK1/LTK; 101% at TXK [4]; 103% on IRAK1. In addition, the remaining activity at 1 µM at MLK2/MAP3K10 is 86.4%; at PAK6, 102%; at GRK2, 105%; on GSK3b, 88.5%. Moreover, the “% enzyme activity” value on CDK3/cyclin E was determined as 81.63%; at RAF1, 78.57%; at CDK1/cyclin B [2] it was 92.35%; on TXK [3], 100.80%; at TSSK3/STK22C, 96.02%; on MAST3, 93.52%. Moreover, the “% enzyme activity” value was found to be 87.14% on PAK3; 97.44% on MEK1; 100.35% on PAK2; 97.88% at HIPK2; 82.63% at PKCb1; 65.46% on ACK1. The molecule also had a CYP inhibition at CYP2C8 above 50 µM. Also, the IC50 at CYP2C19 was above 50 µM.

Broadly, the IC50 is the concentration that inhibits the measured activity by half.

Source of the values: PMC8213057, “Targeting ALK2: An Open Science Approach to Developing Therapeutics for the Treatment of Diffuse Intrinsic Pontine Glioma” (Journal of Medicinal Chemistry, 2020).
